In patent US20240207414A1, “DISULFIDE-BASED PRODRUG COMPOUND” (Ludwig-Maximilians-Universitat Munchen, priority 2021, published 2024):

Assays:
[1] = Chemical reductant assay: GSH challenge (cell-free); format: physicochemical; conditions: aq. TE buffer pH 7.4, 37° C., 6 h, GSH 0.01-10 mM
From the text: This assay (see FIG. 1) examined the stability of disulfide-based reduction-triggered compounds of the invention when exposed to monothiol reductants, primarily the major physiological cellular monothiol GSH, and dithiol reductants like the disulfide reductant dithiothreitol (DTT), as evaluated in a cell-free assay, to determine whether these compounds can be useful for selective release.
Assay Conditions: A black 96-well plate with black bottom was charged with solutions of fluorophore-releasing reduction-triggered probes that are compounds of the invention (P1, P2, P3, P4 and P5) or that are not compounds of the invention and reveal the performance of prior art systems (X19) (80 μL; 25 μM in aq. TE buffer (pH 7.4) and 1.25% vol DMSO). Solutions of challenge species chosen from the monothiol glutathione (GSH, 0.1-50 mM) and the dithiol reductant dithiothreitol (DTT, 0.1-50 mM) or phosphine reductant tris-(2-carboxyethyl) phosphine (TCEP); (20 μL; 1 mM in aq. TE buffer (pH 7.4) were added and the reaction mixtures were incubated at 37° C. for 6 h while measuring fluorescence intensity over time [F(t)] using a BMG Labtech FLUOstar Omega platereader (λexc=355 nm, Δem=530 nm for PQ-OH-releasing probes X19, P1 and P2; Δexc=485 nm, Δem=530 nm for MF-OH-releasing probes P3 and P4.
Data Representation: F^max is the maximum possible fluorescence increase corresponding to complete reduction-triggered cargo release, i.e. the fluorescence intensity increase from time zero to signal plateau under TCEP incubation PQ-OH-releasing probes. F(t)/F^max(t) thus gives the timecourse measurements of fluorescence intensity, as a fraction of the maximum possible fluorescence signal. F^sat is the endpoint fluorescence intensity increase for each condition, ie. F^sat=(F(6 h)). F^sat/F^max thus gives the assay endpoint fluorescence intensity increase, as a fraction of the maximum possible fluorescence signal. In the GSH timecourse measurements shown in FIG. 1, all datasets annotated with concentrations only (0.01-10 mM) refer to GSH challenges, while datasets for TCEP positive control (100 μM) and no-reductant control (blank) are shown for comparison. The dose-response plots show F^sat/F^max for the different ratios between probe and GSH or probe and DTT concentrations, with a logarithmic horizontal scale.

TrxR1(U498C) = biological target: T1, TrxR1(U498C) (Homo sapiens, UniProt Q16881); assay: Enzymatic activation assay: TrxR1 Secys498Cys mutant; format: biochemical; conditions: NADPH; for cargo release / processing by TrxR1(U498C)/Trx1: TrxR1(U498C) with Trx1
T1 sequence (Q16881 with tags, fused parts or gaps isoform Q16881-5): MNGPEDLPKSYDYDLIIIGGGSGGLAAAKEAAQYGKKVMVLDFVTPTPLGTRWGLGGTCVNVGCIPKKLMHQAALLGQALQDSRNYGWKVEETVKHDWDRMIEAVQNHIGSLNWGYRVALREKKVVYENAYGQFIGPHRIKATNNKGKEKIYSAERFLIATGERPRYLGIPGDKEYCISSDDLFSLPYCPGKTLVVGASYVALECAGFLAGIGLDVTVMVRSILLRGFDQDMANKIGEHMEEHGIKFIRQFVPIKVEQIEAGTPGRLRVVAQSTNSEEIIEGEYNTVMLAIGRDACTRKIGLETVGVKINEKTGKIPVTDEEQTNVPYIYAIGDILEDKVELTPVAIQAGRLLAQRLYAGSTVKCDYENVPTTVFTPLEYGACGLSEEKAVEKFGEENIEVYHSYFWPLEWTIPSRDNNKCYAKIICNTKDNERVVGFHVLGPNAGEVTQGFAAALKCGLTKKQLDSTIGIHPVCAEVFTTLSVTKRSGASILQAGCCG
From the text: (§1) This assay (see FIG. 2) examined the resistance of disulfide-based reduction-triggered compounds to the major cellular enzymatic systems that maintain redox homeostasis and are capable of reducing disulfides, evaluated in a cell-free assay, to see if these compounds can be useful for selective enzyme-triggered release.
(§2) Assay conditions: A black 96-well plate with black bottom was charged with solutions of fluorophore-releasing reduction-triggered probes that are compounds of the invention (P1, P2) or that are not compounds of the invention and reveal the performance of prior art systems (X19) (50 μL; 40 μM in aq. TE buffer (pH 7.4) and 4 μL DMSO). Separately, master mixes (30 μL in aq. TE buffer (pH 7.4)) containing mixtures of the proteins human recombinant thioredoxin 1 (Trx1, 0.166-16.66 μM) or thioredoxin 2 (Trx2, 3.3 μM), or human recombinant glutaredoxin 1 (“Grx1”, 3.3 μM) or glutaredoxin 2 (Grx2, 3.3 μM) and/or oxidoreductases human recombinant thioredoxin reductase 1 (TrxR1, 0.07 μM), the thioredoxin reductase Secys498Cys mutant (TrxR1-U498C, 0.07 μM), thioredoxin reductase 2 (TrxR2, 0.07 μM) or human recombinant glutathione reductase (GR, 0.07 μM), and/or GSH (3.3 μM) were prepared. Note that TrxR1 (U498C) has decreased reducing power compared to TrxR1 due to the mutation of the key vicinal selenothiol/thiol into a vicinal dithiol, but it still reduces Trx1. […]
(§3) Data Representation: (F(t)-F^NADPH(t)) is the fluorescence intensity of the test solution at time t, from which is subtracted a background fluorescence level also at time t from a solution with NADPH (which itself is fluorescent, and is present in 10-fold higher concentration than the probe) and with the same protein mixture but without the probe. F^max(t) is the maximum possible fluorescence intensity value at time t, determined by incubation with TCEP (100 μM)) similarly as for the chemical reductant assay. (F(t)−F^NADPH(t))/F^max(t) thus gives the timecourse of fluorescence signal, as a fraction of the maximum possible fluorescence signal. […]

GR/GSH = biological target: T2, GR/GSH (Homo sapiens, UniProt P00390); assay: Enzymatic activation assay: GR/GSH; format: biochemical; conditions: NADPH/GR/GSH
T2 sequence (P00390 44-522): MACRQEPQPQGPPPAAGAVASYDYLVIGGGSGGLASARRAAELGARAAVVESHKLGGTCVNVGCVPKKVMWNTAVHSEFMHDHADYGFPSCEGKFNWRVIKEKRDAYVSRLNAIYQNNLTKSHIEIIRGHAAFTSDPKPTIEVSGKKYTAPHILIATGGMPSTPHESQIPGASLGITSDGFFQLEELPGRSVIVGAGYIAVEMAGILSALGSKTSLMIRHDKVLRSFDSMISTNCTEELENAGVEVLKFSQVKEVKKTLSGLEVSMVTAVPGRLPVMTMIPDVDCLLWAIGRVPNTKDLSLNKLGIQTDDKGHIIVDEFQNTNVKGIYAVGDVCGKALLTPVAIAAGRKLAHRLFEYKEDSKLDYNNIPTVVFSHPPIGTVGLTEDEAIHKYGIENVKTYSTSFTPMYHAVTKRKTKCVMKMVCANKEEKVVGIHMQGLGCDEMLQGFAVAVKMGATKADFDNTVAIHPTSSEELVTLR
From the text: as §1, §2, §3

| Compound | cargo release (fluorescence) when challenged with monothiol reductant GSH [1] | cargo release / degradation by TrxR1(U498C) (TrxR1(U498C); TrxR1(U498C)) | cargo release / processing by GR/GSH mixture (GR/GSH) | cargo release / processing by TrxR1(U498C)/Trx1 (TrxR1(U498C)) |
| --- | --- | --- | --- | --- |
| 4-chloro-2-(6-chloro-4-oxo-3,4-dihydroquinazolin-2-yl)phenyl methyl(2-((2-(methyl amino)ethyl)disulfaneyl)ethyl)carbamate [Compound X19, reference compound] | already unstable to the monothiol GSH | rapidly degraded | rapidly degraded |  |
| O=C(Oc1ccc(Cl)cc1-c1nc2ccc(Cl)cc2c(=O)[nH]1)N1CCC[C@@H]2CSSC[C@@H]21 (racemic) [Compound P2, 4-chloro-2-(6-chloro-4-oxo-3,4-dihydroquinazolin-2-yl)phenyl-(cis)-hexahydro-[1,2]dithiino[4,5-b]pyridine-1(2H)-carboxylate] | do not release cargo |  | resist | not processed |
| O=C(Oc1ccc(Cl)cc1-c1nc2ccc(Cl)cc2c(=O)[nH]1)N1CCC[C@@H]2CSSC[C@H]21 (racemic) [Compound P1, 4-chloro-2-(6-chloro-4-oxo-3,4-dihydroquinazolin-2-yl)phenyl-(trans)-hexahydro-[1,2]dithiino[4,5-b]pyridine-1(2H)-carboxylate] | do not release cargo |  | resist | not processed |
